Numbered stars: 1 amine (or outer) side, 2 acyl side, 3 side chain; on linkers, the order of the positions; unused ones are H or OH. Bridge positions count the residues as written; N and C are the ends. Square brackets hold non-standard residues; d marks the D form. Peptide text beside a SMILES is read from it. ξ: configuration not given here. N(CH2CH2CO)Gly = O=C(CN(CCC(=O)[*:3])[*:1])[*:2]; Nphe = O=C(O)CNCc1ccccc1; Nleu = CC(C)CNCC(=O)O; ξP = O=C(O)C1CCCN1; Sar = CNCC(=O)O
Key:
APP/PS1 Tg mice [1] = experiment: Astrocytosis and microgliosis by GFAP, CD11b and Iba1 immunoreactivity; format: in vivo, mouse; conditions: semi-quantitative rating 0-4, versus vehicle
Method: (§1) The effect of CPO_Aβ17-21 P on Aβ deposition was tested in APP/PS1 Tg mice with plaque pathology. This AD mouse model develops plaque pathology from the age of 3 months. Animals were divided into two groups and received intraperitoneally (i.p.) injections of 0.2 mg of CPO_ Aβ17–21 P per mouse in sterile saline (n = 11, 5 male, 6 female) or saline alone (n = 10, 5 male, 5 female) as a control twice weekly for 4 months, beginning at age 3 months. During the treatment, veterinary staff monitored animals for any signs of toxicity, such as changes in body weight, physical appearance, and altered behavior. Animals were sacrificed a week after administration of the last treatment dose and behavioral testing. All mouse care and experimental procedures were compliant with guidelines of animal experimentation and were approved by the Institutional Animal Care and Use Committee at the New York University School of Medicine.
Mice were anesthetized with sodium pentobarbital (150 mg/kg, i.p.) and blood was collected via cardiac puncture and plasma was separated by centrifugation. Animals were perfused transaortically. The brains and internal organs were collected and cut into halves, one half immersion-fixed in periodate-lysine paraformaldehyde (PLP) for histopathological analysis, and another half snap-frozen for biochemical studies as previously described. Serial coronal brain sections (40 μm) were cut evenly spaced every 400 μm μm along the entire rostro-caudal brain axis and stained for immunohistochemical analysis with: (1) a mixture of anti-Aβ monoclonal antibodies 6E10/4G8 (1 :2000) (Covance, Princeton, NJ), (2) polyclonal anti-glial fibrillary acidic protein (GFAP) antibody (1:1000) (Dako, Carpinteria, CA), (3) polyclonal anti-Iba1 antibody (1:1000) (Wako Chemicals, Richmond, VA) and (4) monoclonal anti-CD11b (1: 500) (Serotec, Raleigh, NC). To measure treated mice brain total amyloid burden change, two different anti-Aβ monoclonal antibodies with distinct epitopes 6E10 (epitope Aβ1–16) and 4G8 (epitope Aβ17–24) were used[38]. To examine brain inflammation levels associated with treatment, we assessed the degree of astrocytosis with GFAP immunoreactivity and the degree of microgliosis with Iba1 and CD11b immunoreactivity as previously published, [37], [39], [40]. GFAP is a component of the glial intermediate filaments that form part of the cytoskeleton and is found predominantly in astrocytes. CD11b is a protein subunit that forms integrin alpha-M beta-2 (αMβ2) molecule, also known as MAC-1 or complement receptor 3 (CR3). CD11b monoclonal antibodies are commonly used for detection of microglial activation at the earliest stages of plaque development. In addition, Iba1 (ionized calcium binding adaptor molecule) antibody was used to label the entire microglia population including activated and resting microglia, a marker for detecting generic microglia, [43]. Immunohistochemistry was performed on free floating coronal brain sections. Details of the procedure and techniques were described previously, [37], [39], [40]. […] Human Alzheimer disease patients brain sections were used for positive control immunostaining, sequential mouse brain sections with omission of the primary antibody were used for negative immunostaining controls.
The assessment of astrocytosis and microgliosis were based on a semi-quantitative analysis, using methods we have previously published by a rater blinded to the treatment status of the mice[19], [37], [39], [40]. Prior to analysis, brains were microscopically examined and rated on a scale from 0–4, in increments of 0.5, depending on the degree of pathology and/or the activation stage of the glial cells. All stained cortical and hippocampal sections were analyzed at 10x magnification. Approximately 8 cortical sections and 6 hippocampal sections were analyzed per animal. […]

APP/PS1 Tg mice [2] = experiment: Cognitive tests (radial arm maze, object recognition); format: in vivo; conditions: 0.2 mg per mouse i.p. twice weekly for 4 months
Method: as §1, with “Medicine. […]” for “Medicine.”
Spatial learning (working memory) was tested using a radial arm maze with eight radial 30-cm-long arms originating from the central space. […] The number of errors (entry into previously visited arms) was recorded during each session.
The spontaneous object recognition test measures short-term memory. […] The amount of time spent exploring each object within a defined zone of the area was automatically recorded by a tracking system (San Diego Instruments, San Diego, CA).

APP/PS1 Tg mice [3] = experiment: Total amyloid burden by 6E10/4G8 immunohistochemistry; format: in vivo, mouse; conditions: one-tailed unpaired t-test
Method: as §1, with “All mouse care and experimental procedures were compliant with guidelines of animal experimentation and were approved by the Institutional Animal Care and Use Committee at the New York University School of Medicine.” left out
Mice were anesthetized with sodium pentobarbital (150 mg/kg, i.p.) and blood was collected via cardiac puncture and plasma was separated by centrifugation. […] To examine brain inflammation levels associated with treatment, we assessed the degree of astrocytosis with GFAP immunoreactivity and the degree of microgliosis with Iba1 and CD11b immunoreactivity as previously published, [37], [39], [40]. […]
Amyloid burden was measured by a Bioquant stereology (BIOQUANT Image Analysis Corporation, Nashville, TN) semi-automated image analysis system using a randomized and unbiased sampling scheme according to our previous published protocol, [19], [37], [39], [40]. […]

## CC(C)CN1CC(=O)N2CCCC2C(=O)N(Cc2ccccc2)CC(=O)N(Cc2ccccc2)CC(=O)N(C)CC(=O)N(CC(N)=O)CCC1=O (stereo not shown) [CPO_Aβ17-21 P] ([Nleu][ξP][Nphe][Nphe][Sar][N(CH2CH2CO)Gly]-NH2; lactam N-6)
APP/PS1 Tg mice [1]
  cortical astrogliosis (GFAP immunoreactivity): no significant effect
  cortical microgliosis (CD11b immunoreactivity): decreased
  cortical microgliosis (Iba1 immunoreactivity): reduced
  hippocampal astrogliosis (GFAP immunoreactivity): decreased
  hippocampal microgliosis (CD11b immunoreactivity): no significant effect
  hippocampal microgliosis (Iba1 immunoreactivity): no significant effect
APP/PS1 Tg mice [2]; p < 0.01 two-way ANOVA treatment effect
  radial arm maze, number of errors: significant cognitive improvement
APP/PS1 Tg mice [2]; p = 0.016
  novel object recognition: significant cognitive improvement
APP/PS1 Tg mice [3]; p = 0.0226 versus vehicle
  total amyloid burden (6E10/4G8 immunoreactivity), cortex: significant reduction
APP/PS1 Tg mice [3]; p = 0.0361 versus vehicle
  total amyloid burden (6E10/4G8 immunoreactivity), hippocampus: significant reduction

Source: publication PMC5556019, “Targeting Apolipoprotein E/Amyloid β Binding by Peptoid CPO_Aβ17-21 P Ameliorates Alzheimer’s Disease Related Pathology and Cognitive Decline” (Scientific Reports, 2017)
